In data set [1] the test system is Sprague-Dawley Rats. The data set is described as follows: Fear memory renewal test, NAC administered immediately before the renewal test. Type of data set: in vivo. The settings on record: NAC 200 mg/kg peritoneally 2.5 hours before the renewal test on the 7th and 8th day, result on the 8th day after fear conditioning, vs control.
Experimental: Sprague-Dawley Rats (8-9 weeks old, from Samtaco, Korea) were maintained with free access to water and food with 12 hour dark/light cycles (lights off at 09:00 hrs). Group of three to six animals were used for each experiment. (26 in total) For fear conditioning, the rats were presented with a tone (2.8 kHz, 85 dB) co-terminating with an electrical shock (1.0 mA, 1 s) three times at an interval of 100 sec. The rats were returned to the cage 1 minute after the last shock has been applied. Three days after the conditioning, the exposure therapy was done in a chamber distinct from the conditioning chamber for both extinction training and tone tests. 10 tones were presented at an interval of 100 sec without shocks, during which the freezing responses were measured to determine the reduction of fear memories. Unpaired, two-tailed T-test was used to analyze the results. The renewal test was done on day 12 after the conditioning was completed. The same chamber and place as it was used for the fear conditioning were used for the renewal. […] The fear memory recalled was determined by measuring the freezing response as described before (Kim et al., 2007, PNAS 104 (52): 20955-960). The freezing was defined as immobility except for respiratory movements and was quantified by trained observers who were blind to the experimental groups. […]
For data set [2] the following is noted: cited from earlier work.
Data set [3] concerns Sprague-Dawley Rats. Put plainly: Fear memory renewal test, NAC administered during extinction training (exposure therapy). The settings on record: NAC 200 mg/kg peritoneally once a day, days 3 to 5 after conditioning, 2.5 hours before exposure therapy, renewal tests on day 12 and day 21, vs saline control. The class given is in vivo.
Experimental: Sprague-Dawley Rats (8-9 weeks old, from Samtaco, Korea) were maintained with free access to water and food with 12 hour dark/light cycles (lights off at 09:00 hrs). Group of three to six animals were used for each experiment. (26 in total) For fear conditioning, the rats were presented with a tone (2.8 kHz, 85 dB) co-terminating with an electrical shock (1.0 mA, 1 s) three times at an interval of 100 sec. The rats were returned to the cage 1 minute after the last shock has been applied. Three days after the conditioning, the exposure therapy was done in a chamber distinct from the conditioning chamber for both extinction training and tone tests. 10 tones were presented at an interval of 100 sec without shocks, during which the freezing responses were measured to determine the reduction of fear memories. Unpaired, two-tailed T-test was used to analyze the results. […] The negative control was only received physiological saline. The renewal test was done on day 12 after the conditioning was completed. The same chamber and place as it was used for the fear conditioning were used for the renewal. […] The fear memory recalled was determined by measuring the freezing response as described before (Kim et al., 2007, PNAS 104 (52): 20955-960). The freezing was defined as immobility except for respiratory movements and was quantified by trained observers who were blind to the experimental groups. […]
The conditions of data set [4]: general statement, no test described; cited from earlier work.
The test system of data set [5] is Sprague-Dawley Rats. Put plainly: Fear memory renewal test, NAC administered one day before the renewal test. The class given is in vivo. The settings on record: NAC 200 mg/kg peritoneally on the 7th day after 4 days of extinction training, result on the 9th day after fear conditioning, vs control.
Experimental: Sprague-Dawley Rats (8-9 weeks old, from Samtaco, Korea) were maintained with free access to water and food with 12 hour dark/light cycles (lights off at 09:00 hrs). Group of three to six animals were used for each experiment. (26 in total) For fear conditioning, the rats were presented with a tone (2.8 kHz, 85 dB) co-terminating with an electrical shock (1.0 mA, 1 s) three times at an interval of 100 sec. The rats were returned to the cage 1 minute after the last shock has been applied. Three days after the conditioning, the exposure therapy was done in a chamber distinct from the conditioning chamber for both extinction training and tone tests. 10 tones were presented at an interval of 100 sec without shocks, during which the freezing responses were measured to determine the reduction of fear memories. Unpaired, two-tailed T-test was used to analyze the results. The renewal test was done on day 12 after the conditioning was completed. The same chamber and place as it was used for the fear conditioning were used for the renewal. The rats with the extinction training were placed in the conditioning chamber and were left undisturbed for 10 minutes. Then the fear memory was recalled by presenting the rats with a tone for 30 sec. […] The freezing was defined as immobility except for respiratory movements and was quantified by trained observers who were blind to the experimental groups. […]

The pKa is the pH at which an ionisable group is half protonated. In the case of `CC(=O)N[C@@H](CS)C(=O)O` [NAC, N-acetyl-L-cysteine], the “renewal of the fear memory (freezing response)” value was “the renewal of the fear memory was blocked” in the data set with Sprague-Dawley Rats [1] (FIG. 6); “prevented the return of fear-memories” in the data set with Sprague-Dawley Rats [1] (FIG. 6, listed as N-Acetyl-L-cysteine); “the renewal of the fear memory was blocked” with Sprague-Dawley Rats [3] (FIG. 2); “the return of fear-memories was prevented and the effect was long-lasted” with Sprague-Dawley Rats [3] (FIG. 2, listed as N-Acetyl-L-cysteine); “the renewal of the fear memory was blocked” with Sprague-Dawley Rats [5] (FIG. 4); “the return of fear-memories was prevented” with Sprague-Dawley Rats [5] (FIG. 4, listed as N-Acetyl-L-cysteine). Also, the pKa in data set [2] is 3.24. Further, in data set [4], the blood-brain barrier penetration result is “penetrate a blood-brain barrier”.

These data come from patent US9433596B2, “Pharmaceutical composition comprising N-acetyl-L-cysteine or its derivatives for treating anxiety disorder” (SNU R&DB FOUNDATION, priority 2010, dated 2016).
